Key:
[1] = test system: Coronarthrombose; assay: Coronary thrombosis by the method of Folts et al.: frequency of cyclic blood flow variations (CFV's) in the damaged, stenosed left descending coronary artery of anaesthetised pigs; type: in vivo, Hausschweinen
Procedure: Bei den tief narkotisierten Tieren wurde der Thorax eröffnet; die linke absteigende Coronararterie wurde freipräpariert und mit einem elektromagnetischen Blutströmungsmeßkopf versehen. Distal des Meßkopfes wurde das Coronargefäß durch kurzes (1 s) Quetschen mit einer Gefäßklemme geschädigt. Auf diese Stelle wurde ein Plastikkonstriktor (innerer Durchmesser 1.7 - 2.8 mm, Länge 2 mm) gesetzt, der das Gefäß stenosiert. […] Die Thromben wurden durch Bestimmung der Frequenz (Anzahl pro 60 min) der zyklischen Blutströmungsveränderungen quantifiziert. […] 0.1 mg/kg Molsidomin i.v. zusammen mit 0.1 mg/kg r-Hirudin i.v., gefolgt von 0.1 mg/kg·60 min r-Hirudin - Infusion.
Der Versuch wurde 1 Stunde nach Ende der Infusion bzw. 2 Stunden nach Bolusinjektion der Substanzen beendet. Die Frequenzen der zyklischen Blutströmungsveränderungen in der Stunde vor und in der ersten und zweiten Stunde nach Injektion der Prüfsubstanzen wurden für jede Versuchsgruppe gemittelt. Die mittleren Frequenzen der Zyklen vor und nach Substanzverabreichung wurden statistisch miteinander verglichen (Student-t-Test für verbundene Stichproben). Ein p - Wert von < 0.05 galt als signifikanter Unterschied.

[2] = Systolic and diastolic peripheral arterial blood pressure measured in the same animals; type: in vivo, Hausschweinen; settings: Molsidomin 0.1 mg/kg i.v. alone (Gruppe 1) or with r-Hirudin total 0.2 mg/kg i.v. (Gruppe 3)
Description: Diese Wirkung wurde in folgendem Test ermittelt: Bei männlichen, ca. 4 Monate alten Hausschweinen wurde eine Coronarthrombose nach der Methode von Folts et al (Circulation 1976, 54; 365 - 70) erzeugt. Bei den tief narkotisierten Tieren wurde der Thorax eröffnet; die linke absteigende Coronararterie wurde freipräpariert und mit einem elektromagnetischen Blutströmungsmeßkopf versehen. Distal des Meßkopfes wurde das Coronargefäß durch kurzes (1 s) Quetschen mit einer Gefäßklemme geschädigt. Auf diese Stelle wurde ein Plastikkonstriktor (innerer Durchmesser 1.7 - 2.8 mm, Länge 2 mm) gesetzt, der das Gefäß stenosiert. Diese Versuchsbedingungen führten zum Auftreten regelmäßiger zyklischer Blutströmungsveränderungen (CFV's), verursacht durch die wiederholte Bildung und Embolisierung von Thromben an der geschädigten stenosierten Stelle. Die Thromben wurden durch Bestimmung der Frequenz (Anzahl pro 60 min) der zyklischen Blutströmungsveränderungen quantifiziert. […]

**Q.** With CCOC(=O)[N-]c1cn(N2CCOCC2)n[o+]1 [Molsidomin, N-Ethoxycarbonyl-3-morpholino-sydnonimin] as the molecule, how does the “Anzahl thrombotischer Flowzyklen (n/60 min) 1. Stunde nach Substanzinjektion” value ([1]; 1st hour after injection, Molsidomin 0.1 mg/kg i.v. bolus, r-Hirudin total 0.2 mg/kg (0.1 mg/kg i.v. bolus + i.v. infusion over 60 min), combination: both, n=6) read?
**A.** The value was 19 ± 3 n/60 min.

**Q.** What about the “Anzahl thrombotischer Flowzyklen (n/60 min) 1. Stunde Vorphase” value ([1]; baseline hour before substance injection, mean of group, n=6) of the same molecule?
**A.** Its value is 16 ± 2 n/60 min.

**Q.** And the “antithrombotische Wirkung der Einzeldosierungen” value ([1]; preliminary experiments (Vorversuche), single doses: Molsidomin 0.1 mg/kg i.v., r-Hirudin total 0.2 mg/kg i.v.)?
**A.** The value was “gerade nicht antithrombotisch wirkend”.

**Q.** And the “Senkung des diastolischen Blutdrucks” value ([2]; decrease not significant)?
**A.** The value was 10 ± 5 mm Hg.

**Q.** And the “Senkung des systolischen Blutdrucks” value ([2]; maximal decrease, p < 0.05)?
**A.** Its value is 18 ± 5 mm Hg.

Reference: EP0499831A2, “Combination of active agents comprising a sydnonimin derivate and a hirudin” (CASSELLA Aktiengesellschaft, priority 1991, dated 1992)
